Reference: ChEMBL document CHEMBL1201862, “PubChem BioAssay data set” (2004)
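Step 1: Grow cells in 96-well plates. Step 2: Expose to compound for 48 hours at 5 concentrations. Step 3: Interpolate endpoints linearly; if unreached, use highest concentration. Here, GI50 denotes the concentration required for 50% inhibition of growth.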 The source made the active and inactive calls. No stated cut-off is given here; in the data, active = GI50 up to about 1.1 µM and inactive = higher.

Assays:
Assay in all cases: NCI-60 cell line screen, 48 h
SF-295 = test system: SF-295
EKVX = test system: EKVX
HL-60 = test system: HL-60
RPMI-8226 = test system: RPMI-8226
LXFL 529 = test system: LXFL 529
SF-268 = test system: SF-268
SNB-75 = test system: SNB-75
SK-MEL-28 = test system: SK-MEL-28
NCI-H522 = test system: NCI-H522
MOLT-4 = test system: MOLT-4
SF-539 = test system: SF-539
M19-MEL = test system: M19-MEL
OVCAR-3 = test system: OVCAR-3
SK-MEL-5 = test system: SK-MEL-5
DMS-273 = test system: DMS-273
U-251 = test system: U-251
HCT-116 = test system: HCT-116
SN12C = test system: SN12C
DLD-1 = test system: DLD-1
786-0 = test system: 786-0
KM-20L2 = test system: KM-20L2
A498 = test system: A498
HCC 2998 = test system: HCC 2998
CCRF-CEM = test system: CCRF-CEM
HCT-15 = test system: HCT-15
OVCAR-8 = test system: OVCAR-8
SR = test system: SR
M14 = test system: M14
Malme-3M = test system: Malme-3M
OVCAR-5 = test system: OVCAR-5
RXF 393 = test system: RXF 393
HT-29 = test system: HT-29
CAKI-1 = test system: CAKI-1
UACC-257 = test system: UACC-257
HOP-18 = test system: HOP-18
HOP-92 = test system: HOP-92
LOX IMVI = test system: LOX IMVI
OVCAR-4 = test system: OVCAR-4
KM12 = test system: KM12
SNB-78 = test system: SNB-78
ACHN = test system: ACHN
TK-10 = test system: TK-10
A549 = test system: A549
IGROV-1 = test system: IGROV-1
HOP-62 = test system: HOP-62
UACC-62 = test system: UACC-62
DMS-114 = test system: DMS-114
NCI-H460 = test system: NCI-H460
SNB-19 = test system: SNB-19
SW-620 = test system: SW-620
COLO 205 = test system: COLO 205
UO-31 = test system: UO-31
SK-OV-3 = test system: SK-OV-3

Measured: GI50

OC1/C(=C/c2ccccc2)CNC/C1=C\c1ccccc1 (stereo not drawn)
inactive: SF-295 > 100 µM | EKVX > 100 µM | HL-60 92.7 µM | RPMI-8226 > 100 µM | LXFL 529 > 100 µM | SF-268 > 100 µM | SNB-75 75.7 µM | SK-MEL-28 > 100 µM | NCI-H522 > 100 µM | MOLT-4 > 100 µM | SF-539 > 100 µM | M19-MEL > 100 µM | OVCAR-3 > 100 µM | SK-MEL-5 > 100 µM | DMS-273 > 100 µM | U-251 > 100 µM | HCT-116 > 100 µM | SN12C > 100 µM | DLD-1 > 100 µM | 786-0 > 100 µM | KM-20L2 > 100 µM | A498 > 100 µM | HCC 2998 > 100 µM | CCRF-CEM 40.8 µM | OVCAR-8 > 100 µM | SR > 100 µM | M14 > 100 µM | Malme-3M > 100 µM | OVCAR-5 > 100 µM | RXF 393 > 100 µM | HT-29 89.7 µM | CAKI-1 43.1 µM | UACC-257 > 100 µM | HOP-18 > 100 µM | HOP-92 96.8 µM | LOX IMVI > 100 µM | OVCAR-4 > 100 µM | KM12 > 100 µM | SNB-78 > 100 µM | ACHN > 100 µM | TK-10 > 100 µM | A549 > 100 µM | IGROV-1 > 100 µM | HOP-62 > 100 µM | UACC-62 > 100 µM | DMS-114 > 100 µM | NCI-H460 > 100 µM | SNB-19 > 100 µM | SW-620 > 100 µM | COLO 205 > 100 µM | UO-31 87.5 µM | SK-OV-3 > 100 µM
> 100 µM: HCT-15
